Source: article PMC11609934, “Exploration and characterization of the antimalarial activity of cyclopropyl carboxamides that target the mitochondrial protein, cytochrome b” (European Journal of Medicinal Chemistry, 2024)
pEC50: −log10 of the molar value.

system: not listed separately; test: Human HepG2 growth inhibition assay (Cell TitreGlo, 48 h); type: cell-based; details: human, HepG2 cells, HepG2 cell growth inhibition over 48 h
Procedure: To establish the SAR, synthesized analogs were assessed against the asexual stage parasite (72 h) using LDH as a proxy for parasite growth inhibition. Cytotoxicity was monitored against the human HepG2 cell line using Cell TitreGlo as a metabolic marker for cell growth. Cyt b inhibitors typically have high lipophilicity, and so calculated physicochemical properties were determined, while in vitro ADME was also collected on representative analogs to gauge their suitability for efficacy studies in a 4-day P. berghei model.
Human HepG2 Growth Inhibition Assay. This is a routine assay undertaken at the Walter and Eliza Hall Institute and the method has been previously published. HepG2 cells were cultured in Dulbeccos modified eagles medium (DMEM) supplemented with 10 % fetal calf serum (FCS), in a humidified incubator at 37 °C and 5 % CO2. Assay plates (Greiner #781098, 384 well, white, tissue culture treated) were prepared by transferring appropriate volumes of 10 mM compound stocks using an Echo555 (Labcyte) such that the starting concentration was 50 μM, with a 1:2-fold dilution series. All wells were backfilled with DMSO to […] such that this remained constant (0.5 % DMSO). The positive growth control was 0.5 % DMSO and the negative growth control was 10 μM Bortezomib. HepG2 cells were seeded with 1000 cells in 50 μL DMEM with 10 % FCS into each well of the assay plates using a Multidrop Combi dispenser (Thermo Scientific). Plates were incubated at 37 °C and 5 % CO2 for 48 h. Cytotoxicity was determined using Cell Titer Glo (Promega) and calculated as a percentage using DMSO as the positive growth control and 10 μM Bortezomib as a negative growth control. EC50 values were calculated by Dotmatics 5.3 and Spotfire 7.11.1 software using a nonlinear regression four-parameter fit analysis. The equation used is sigmoidal dose response (variable slope), Y = bottom + (top − bottom)/(1 + 10((logEC50 − X) × Hill Slope)).

| SMILES | CC50 at 48 h [µM] |
| --- | --- |
| CC(C)c1cccc(CN(Cc2ccc(C(=O)NC3CC3)cc2)C2CC2)c1 [Compound 54, N-Cyclopropyl-4-((cyclopropyl(3-isopropylbenzyl)amino)methyl)benzamide] | > 40 |
| CC(C)c1ccc(CN(Cc2ccc(C(=O)NC3CC3)cc2)C2CC2)cc1 [Compound 55, N-Cyclopropyl-4-((cyclopropyl(4-isopropylbenzyl)amino)methyl)benzamide] | > 40 |
| CC(C)(C)c1ccc(CN(Cc2ccc(C(=O)NC3CC3)cc2)C2CC2)cc1 [Compound 56] | > 40 |
| COc1ccccc1CN(Cc1ccc(C(=O)NC2CC2)cc1)C1CC1 [Compound 57] | > 40 |
| COc1cccc(CN(Cc2ccc(C(=O)NC3CC3)cc2)C2CC2)c1 [Compound 58] | > 40 |
| COc1ccc(CN(Cc2ccc(C(=O)NC3CC3)cc2)C2CC2)cc1 [Compound 59] | > 40 |
| N#Cc1ccccc1CN(Cc1ccc(C(=O)NC2CC2)cc1)C1CC1 [Compound 60] | > 40 |
| N#Cc1cccc(CN(Cc2ccc(C(=O)NC3CC3)cc2)C2CC2)c1 [Compound 61] | > 40 |
| N#Cc1ccc(CN(Cc2ccc(C(=O)NC3CC3)cc2)C2CC2)cc1 [Compound 62] | > 40 |
| CN(C)c1ccc(CN(Cc2ccc(C(=O)NC3CC3)cc2)C2CC2)cc1 [Compound 63, N-Cyclopropyl-4-((cyclopropyl(4-(dimethylamino)benzyl)amino)methyl)benzamide] | > 40 |
| CN(C)c1cccc(CN(Cc2ccc(C(=O)NC3CC3)cc2)C2CC2)c1 [Compound 64, N-Cyclopropyl-4-((cyclopropyl(3-(dimethylamino)benzyl)amino)methyl)benzamide] | > 40 |
| CC(=O)Nc1ccccc1CN(Cc1ccc(C(=O)NC2CC2)cc1)C1CC1 [Compound 65, 4-(((2-Acetamidobenzyl) (cyclopropyl)amino)methyl)-N-cyclopropylbenzamide] | > 40 |
| CC(=O)c1cccc(CN(Cc2ccc(C(=O)NC3CC3)cc2)C2CC2)c1 [Compound 68] | > 40 |
| CC(=O)c1ccc(CN(Cc2ccc(C(=O)NC3CC3)cc2)C2CC2)cc1 [Compound 69] | > 40 |
| O=C(NC1CC1)c1ccc(CN(Cc2cccc(CO)c2)C2CC2)cc1 [Compound 70, N-Cyclopropyl-4-((cyclopropyl(3-(hydroxymethyl)benzyl)amino)methyl)benzamide] | > 40 |
| O=C(NC1CC1)c1ccc(CN(Cc2ccc(CO)cc2)C2CC2)cc1 [Compound 71, N-Cyclopropyl-4-((cyclopropyl(4-(hydroxymethyl)benzyl)amino)methyl)benzamide] | > 40 |
| O=C(NC1CC1)c1ccc(CN(Cc2ccc(F)cc2F)C2CC2)cc1 [Compound 72, N-Cyclopropyl-4-((cyclopropyl(2,4-difluorobenzyl)amino)methyl)benzamide] | > 40 |
| O=C(NC1CC1)c1ccc(CN(Cc2ccc(F)c(F)c2)C2CC2)cc1 [Compound 73] | > 40 |
| O=C(NC1CC1)c1ccc(CN(Cc2cc(F)cc(F)c2)C2CC2)cc1 [Compound 74] | > 40 |
| O=C(NC1CC1)c1ccc(CN(Cc2c(F)cc(F)cc2F)C2CC2)cc1 [Compound 75, N-Cyclopropyl-4-((cyclopropyl(2,4,6-trifluorobenzyl)amino)methyl)benzamide] | > 40 |
| O=C(NC1CC1)c1ccc(CN(Cc2ccc(Cl)c(Cl)c2)C2CC2)cc1 [Compound 76] | > 40 |

system: P. falciparum 3D7 parasites; test: P. falciparum 3D7 asexual stage LDH assay (72 h); type: cell-based, Plasmodium falciparum; details: Plasmodium falciparum, 3D7, 72 h, LDH activity of P. falciparum 3D7 parasites over 72 h; means and SDs, three or more experiments; read-out: Pf 3D7 EC50 (SD)
Procedure: To establish the SAR, synthesized analogs were assessed against the asexual stage parasite (72 h) using LDH as a proxy for parasite growth inhibition. Cytotoxicity was monitored against the human HepG2 cell line using Cell TitreGlo as a metabolic marker for cell growth.
P. falciparum 3D7 Asexual Stage LDH Assay. This is a platform assay is routinely undertaken at the Walter and Eliza Hall Institute and details on the protocol has been previously published. Briefly, 10-point dilution series of the compounds were prepared in 384 well assay plates using an Echo555 (Labcyte). Appropriate volumes of 10 mM compound stocks were transferred into the assay plates such that the starting concentration was 1 μM, with a 1 in 3-fold dilution series. All wells were backfilled with DMSO to 40 nL such that this remained constant (0.1 % DMSO). The positive growth control was 0.1 % DMSO and the negative growth control was 100 nM chloroquine. The parasite inoculum (40 μL) was dispensed into plates containing compounds using a Multidrop Combi dispenser (Thermo Scientific). […] Following 72 h growth, plates were sealed with parafilm and frozen at −80 °C overnight. Plates were thawed at room temperature for at least 4 h prior to LDH activity being measured. […] Plates were shaken to ensure mixing and absorbance at 650 nm was measured in an EnVision (PerkinElmer) plate reader after 30 min of incubation at room temperature. […] The equation used is sigmoidal dose response (variable slope), Y = bottom + (top − bottom)/(1 + 10((logEC50 − X) × Hill Slope)).

| SMILES | pEC50 |
| --- | --- |
| CC(C)c1cccc(CN(Cc2ccc(C(=O)NC3CC3)cc2)C2CC2)c1 [Compound 54, N-Cyclopropyl-4-((cyclopropyl(3-isopropylbenzyl)amino)methyl)benzamide] | 7.10 |
| CC(C)c1ccc(CN(Cc2ccc(C(=O)NC3CC3)cc2)C2CC2)cc1 [Compound 55, N-Cyclopropyl-4-((cyclopropyl(4-isopropylbenzyl)amino)methyl)benzamide] | 6.96 |
| CC(C)(C)c1ccc(CN(Cc2ccc(C(=O)NC3CC3)cc2)C2CC2)cc1 [Compound 56] | 7.22 |
| COc1ccccc1CN(Cc1ccc(C(=O)NC2CC2)cc1)C1CC1 [Compound 57] | 6.57 |
| COc1cccc(CN(Cc2ccc(C(=O)NC3CC3)cc2)C2CC2)c1 [Compound 58] | 6.31 |
| COc1ccc(CN(Cc2ccc(C(=O)NC3CC3)cc2)C2CC2)cc1 [Compound 59] | 6.64 |
| N#Cc1ccccc1CN(Cc1ccc(C(=O)NC2CC2)cc1)C1CC1 [Compound 60] | 6.92 |
| N#Cc1cccc(CN(Cc2ccc(C(=O)NC3CC3)cc2)C2CC2)c1 [Compound 61] | 6.89 |
| N#Cc1ccc(CN(Cc2ccc(C(=O)NC3CC3)cc2)C2CC2)cc1 [Compound 62] | 6.20 |
| CN(C)c1ccc(CN(Cc2ccc(C(=O)NC3CC3)cc2)C2CC2)cc1 [Compound 63, N-Cyclopropyl-4-((cyclopropyl(4-(dimethylamino)benzyl)amino)methyl)benzamide] | 6.28 |
| CN(C)c1cccc(CN(Cc2ccc(C(=O)NC3CC3)cc2)C2CC2)c1 [Compound 64, N-Cyclopropyl-4-((cyclopropyl(3-(dimethylamino)benzyl)amino)methyl)benzamide] | 6.49 |
| CC(=O)Nc1ccccc1CN(Cc1ccc(C(=O)NC2CC2)cc1)C1CC1 [Compound 65, 4-(((2-Acetamidobenzyl) (cyclopropyl)amino)methyl)-N-cyclopropylbenzamide] | 5.13 |
| CC(=O)c1cccc(CN(Cc2ccc(C(=O)NC3CC3)cc2)C2CC2)c1 [Compound 68] | 6.96 |
| CC(=O)c1ccc(CN(Cc2ccc(C(=O)NC3CC3)cc2)C2CC2)cc1 [Compound 69] | 6.05 |
| O=C(NC1CC1)c1ccc(CN(Cc2cccc(CO)c2)C2CC2)cc1 [Compound 70, N-Cyclopropyl-4-((cyclopropyl(3-(hydroxymethyl)benzyl)amino)methyl)benzamide] | 5.96 |
| O=C(NC1CC1)c1ccc(CN(Cc2ccc(CO)cc2)C2CC2)cc1 [Compound 71, N-Cyclopropyl-4-((cyclopropyl(4-(hydroxymethyl)benzyl)amino)methyl)benzamide] | 6.77 |
| O=C(NC1CC1)c1ccc(CN(Cc2ccc(F)cc2F)C2CC2)cc1 [Compound 72, N-Cyclopropyl-4-((cyclopropyl(2,4-difluorobenzyl)amino)methyl)benzamide] | 6.64 |
| O=C(NC1CC1)c1ccc(CN(Cc2ccc(F)c(F)c2)C2CC2)cc1 [Compound 73] | 6.66 |
| O=C(NC1CC1)c1ccc(CN(Cc2cc(F)cc(F)c2)C2CC2)cc1 [Compound 74] | 6.66 |
| O=C(NC1CC1)c1ccc(CN(Cc2c(F)cc(F)cc2F)C2CC2)cc1 [Compound 75, N-Cyclopropyl-4-((cyclopropyl(2,4,6-trifluorobenzyl)amino)methyl)benzamide] | 6.72 |
| O=C(NC1CC1)c1ccc(CN(Cc2ccc(Cl)c(Cl)c2)C2CC2)cc1 [Compound 76] | 6.68 |
